Measured values from US4008323A, “Method of reducing cholesterol using certain aromatic keto acids” (Pierre Fabre S.A., priority 1974, dated 1977).
Read-outs that look alike come from different tables or passages of the source.

Key:
carrageenin edema = assay: Carrageenin edema test in rats (antiinflammatory); format: in vivo; conditions: for change in vivo at 300 mg/kg / change in vivo at 75 mg/kg / change in vivo at 200 mg/kg / change in vivo at 30 mg/kg / change in vivo at 50 mg/kg / change in vivo at 100 mg/kg: Rattus norvegicus; for change in vivo at 300 mg/kg: 300 mg/kg oral; for % var. / action (variation of paw volume increase vs controls) / change in vivo at 75 mg/kg: 75 mg/kg oral
Method: The antiinflammatory properties were shown by the carrageenin edema test in rats, the products having been administered orally 1 hour before the intrapodal injection of 0.05 ml of a 2% suspension of carrageenin; the volume of the rat's paw was measured by plethysmoscopy 3, 4 and 6 hours afterwards.
The experiment concerned for each lot […]; one lot of animals receiving only the vehicle (2 ml/100 g of Tween + water) which served for the administration of the products, constituted the control lot. The following table sets forth the results obtained: […]

[1] = Acute toxicity in mice, oral LD50 (method of Miller & Tainter); conditions: mouse, in vivo, mortality determined 48 hours after administration
Method: The chemical compounds previously described were submitted to toxicity tests. It was determined in mice by oral administration and was calculated in accordance with the method of MILLER & TAINTER. It is generally low and greater than 1000 mg/kg.

total blood cholesterol = assay: Total blood cholesterol in rats on a normal diet (hypocholesterolemizing); format: in vivo; conditions: 300 mg/kg oral, 4 consecutive days; 5th day, fasted 16 hours
Method: One lot of rats served as control.
The sampling was effected on the 5th day after 16 hours fasting, by cardiac puncture and the total blood cholesterol determination was effected by the Liebermann-Burchardt colorimetric method.

Solubility properties = format: physicochemical; conditions: for Solubility in ethyl alcohol: ethyl alcohol / ethanol / alcohol
[2] = test system: writhings induced by phenylbenzoquinone; assay: Writhing test, phenylbenzoquinone (analgetic); format: in vivo, mice; conditions: 300 mg/kg oral, t + 35 to t + 40 min
Method: The analgetic properties of certain compounds were shown in mice by the "writhing test" method, that is to say with reference to the writhings induced by phenylbenzoquinone. The administration of the product is effected orally at time t; it is followed by the intraperitoneal injection of 0.2% phenylbenzoquinone at t + 30 min. The determination of the writhings is effected from t + 35 min. to t + 40 min. One lot of animals receiving only the vehicle (5% Tween 80 in 0.9% NaCl) serves as control.

[3] = test system: writhings induced by acetic acid; assay: Writhing test, acetic acid (analgetic); format: in vivo, male mouse; conditions: 200 mg/kg by mouth, t + 60 to t + 70 min
Method: The administration of the compounds is effected by mouth at the time t. […] The determination of the writhings is effected from t + 60 min. to t + 70 min. The vehicle used for the administration of the products is a 5% solution of Tween 80 in 0.9% NaCl which will serve as control.

[4] = read-out: % mean variation of the volume of the paw at 3, 4 and 6 hrs
[5] = 3 hrs, read-out: % increase in volume of the paw, mean (m)
[6] = 4 hrs, read-out: % increase in volume of the paw, mean (m)
[7] = 6 hrs, read-out: % increase in volume of the paw, mean (m)
[8] = 200 mg/kg oral, + 3 hrs, read-out: % increase in volume of the paw, mean (m)
[9] = 200 mg/kg oral, + 3 hrs, read-out: Action (variation of paw volume increase vs controls)
[10] = 200 mg/kg oral, + 4 hrs, read-out: % increase in volume of the paw, mean (m)
[11] = 200 mg/kg oral, + 4 hrs, read-out: Action (variation of paw volume increase vs controls)
[12] = 200 mg/kg oral, + 6 hrs, read-out: % increase in volume of the paw, mean (m)
[13] = 200 mg/kg oral, + 6 hrs, read-out: Action (variation of paw volume increase vs controls)

C=C(CC(=O)c1ccc(F)cc1)C(=O)O [F 1376, 2-methylene 4-oxo 4-fluorophenyl butyric acid]
change in vivo at 300 mg/kg (carrageenin edema; + 3 hrs, read-out: % increase in volume of the paw, mean (m)): 50.8% | change in vivo at 300 mg/kg (carrageenin edema; + 3 hrs, read-out: Action (variation of paw volume increase vs controls)): -17% | change in vivo at 300 mg/kg (carrageenin edema; + 4 hrs, read-out: % increase in volume of the paw, mean (m)): 51.5% | change in vivo at 300 mg/kg (carrageenin edema; + 4 hrs, read-out: Action (variation of paw volume increase vs controls)): -15% | change in vivo at 300 mg/kg (carrageenin edema; + 6 hrs, read-out: % increase in volume of the paw, mean (m)): 54.8% | change in vivo at 300 mg/kg (carrageenin edema; + 6 hrs, read-out: Action (variation of paw volume increase vs controls)): -4% | change in vivo at 300 mg/kg (carrageenin edema; [4]): -12% | LD50 at 48 h [1]: 1400 mg/kg | Total blood cholesterol, M (total blood cholesterol): 0,66 | Solubility in ethyl alcohol (Solubility properties): 20% | Solubility in propylene glycol (Solubility properties; propylene glycol): 10% | Solubility in water (Solubility properties; water, in words): insoluble

C=C(CC(=O)c1ccc(-c2ccccc2)cc1)C(=O)O [F 1377, 2-methylene 4-oxo 4-(paraphenylphenyl) butyric acid]
% Decrease (of writhings) [2]: 68,6% | Mean No. of Writhings [2]: 8,00 | % var. / action (variation of paw volume increase vs controls) (carrageenin edema; 3 hrs): -37% | % var. / action (variation of paw volume increase vs controls) (carrageenin edema; 4 hrs): -37% | % var. / action (variation of paw volume increase vs controls) (carrageenin edema; 6 hrs): -18% | change in vivo at 75 mg/kg (carrageenin edema; [5]): 28.8% | change in vivo at 75 mg/kg (carrageenin edema; [6]): 30.5% | change in vivo at 75 mg/kg (carrageenin edema; [7]): 37.2% | change in vivo at 75 mg/kg (carrageenin edema; [4]): -30% | change in vivo at 200 mg/kg (carrageenin edema; [8]): 27.4% | change in vivo at 200 mg/kg (carrageenin edema; [9]): -46% | change in vivo at 200 mg/kg (carrageenin edema; [10]): 28% | change in vivo at 200 mg/kg (carrageenin edema; [11]): -43% | change in vivo at 200 mg/kg (carrageenin edema; [12]): 28.4% | change in vivo at 200 mg/kg (carrageenin edema; [13]): -32% | change in vivo at 200 mg/kg (carrageenin edema; 200 mg/kg oral, read-out: % mean variation of the volume of the paw at 3, 4 and 6 hrs): -40% | LD50 at 48 h [1]: > 2000 mg/kg | Solubility in N-methyl pyrrolidone (Solubility properties): 15% | Solubility in dimethyl sulfoxide (Solubility properties): 10% | Solubility in ether (Solubility properties; in words): insoluble | Solubility in propylene glycol (in words) (Solubility properties; propylene glycol, in words): insoluble | Solubility in water in the form of sodium salt (in words) (Solubility properties; sodium salt, water, in words): insoluble | Solubility in water (Solubility properties; water, in words): insoluble

C=C(CC(=O)c1ccc(-c2ccccc2Cl)cc1)C(=O)O [F 1379, 2-methylene 4-oxo 4-(4'-orthochlorophenylphenyl) butyric acid]
% increase in volume of the paw, cumulative (m) (carrageenin edema; 30 mg/kg oral): 179,6% | Action, cumulative (carrageenin edema; 30 mg/kg oral): -11,7% | % increase in volume of the paw, cumulative (m) (carrageenin edema; 50 mg/kg oral): 106,1% | Action, cumulative (carrageenin edema; 50 mg/kg oral): -44,4% | % increase in volume of the paw, cumulative (m) (carrageenin edema; 100 mg/kg oral): 83,6% | Action, cumulative (carrageenin edema; 100 mg/kg oral): -56,2% | % increase in volume of the paw, cumulative (m) (carrageenin edema; 200 mg/kg oral): 77,5% | Action, cumulative (carrageenin edema; 200 mg/kg oral): -59,4% | change in vivo at 30 mg/kg (carrageenin edema; 30 mg/kg oral, + 3 hrs, read-out: % increase in volume of the paw, mean (m)): 58.4% | change in vivo at 30 mg/kg (carrageenin edema; 30 mg/kg oral, + 3 hrs, read-out: Action (variation of paw volume increase vs controls)): -17.6% | change in vivo at 30 mg/kg (carrageenin edema; 30 mg/kg oral, + 4 hrs, read-out: % increase in volume of the paw, mean (m)): 60.1% | change in vivo at 30 mg/kg (carrageenin edema; 30 mg/kg oral, + 4 hrs, read-out: Action (variation of paw volume increase vs controls)): -9.6% | change in vivo at 30 mg/kg (carrageenin edema; 30 mg/kg oral, + 6 hrs, read-out: % increase in volume of the paw, mean (m)): 61.1% | change in vivo at 30 mg/kg (carrageenin edema; 30 mg/kg oral, + 6 hrs, read-out: Action (variation of paw volume increase vs controls)): -7% | change in vivo at 50 mg/kg (carrageenin edema; 50 mg/kg oral, + 3 hrs, read-out: % increase in volume of the paw, mean (m)): 24.4% | change in vivo at 50 mg/kg (carrageenin edema; 50 mg/kg oral, + 3 hrs, read-out: Action (variation of paw volume increase vs controls)): -58.2% | change in vivo at 50 mg/kg (carrageenin edema; 50 mg/kg oral, + 4 hrs, read-out: % increase in volume of the paw, mean (m)): 34.4% | change in vivo at 50 mg/kg (carrageenin edema; 50 mg/kg oral, + 4 hrs, read-out: Action (variation of paw volume increase vs controls)): -47% | change in vivo at 50 mg/kg (carrageenin edema; 50 mg/kg oral, + 6 hrs, read-out: % increase in volume of the paw, mean (m)): 47.4% | change in vivo at 50 mg/kg (carrageenin edema; 50 mg/kg oral, + 6 hrs, read-out: Action (variation of paw volume increase vs controls)): -29.7% | change in vivo at 100 mg/kg (carrageenin edema; 100 mg/kg oral, + 3 hrs, read-out: % increase in volume of the paw, mean (m)): 18.7% | change in vivo at 100 mg/kg (carrageenin edema; 100 mg/kg oral, + 3 hrs, read-out: Action (variation of paw volume increase vs controls)): -67.9% | change in vivo at 100 mg/kg (carrageenin edema; 100 mg/kg oral, + 4 hrs, read-out: % increase in volume of the paw, mean (m)): 26.1% | change in vivo at 100 mg/kg (carrageenin edema; 100 mg/kg oral, + 4 hrs, read-out: Action (variation of paw volume increase vs controls)): -59.9% | change in vivo at 100 mg/kg (carrageenin edema; 100 mg/kg oral, + 6 hrs, read-out: % increase in volume of the paw, mean (m)): 38.8% | change in vivo at 100 mg/kg (carrageenin edema; 100 mg/kg oral, + 6 hrs, read-out: Action (variation of paw volume increase vs controls)): -42.5% | change in vivo at 200 mg/kg (carrageenin edema; [8]): 19.6% | change in vivo at 200 mg/kg (carrageenin edema; [9]): -66.4% | change in vivo at 200 mg/kg (carrageenin edema; [10]): 25.1% | change in vivo at 200 mg/kg (carrageenin edema; [11]): -61.3% | change in vivo at 200 mg/kg (carrageenin edema; [12]): 32.8% | change in vivo at 200 mg/kg (carrageenin edema; [13]): -51.3% | LD50 at 48 h [1]: 1500 mg/kg | Total blood cholesterol, M (total blood cholesterol): 0,62 | % Decrease (of writhings) [3]: 18,4% | Mean No. of Writhings [3]: 31,8 | Solubility in NN-dimethyl acetamide (Solubility properties): 25% | Solubility in dimethyl sulfoxide (Solubility properties): 20% | Solubility in ethyl alcohol (Solubility properties): 1% | Solubility in water (Solubility properties; water, in words, listed as Example 6): insoluble

CC(=CC(=O)c1ccc(-c2ccccc2Cl)cc1)C(=O)O [F 1439, 2-methyl 4-oxo 4-(4'-O-chlorophenylphenyl) 2-butenoic acid]
% var. / action (variation of paw volume increase vs controls) (carrageenin edema; 3 hrs): -36% | % var. / action (variation of paw volume increase vs controls) (carrageenin edema; 4 hrs): -33% | % var. / action (variation of paw volume increase vs controls) (carrageenin edema; 6 hrs): -28% | change in vivo at 75 mg/kg (carrageenin edema; [5]): 38% | change in vivo at 75 mg/kg (carrageenin edema; [6]): 40% | change in vivo at 75 mg/kg (carrageenin edema; [7]): 40% | change in vivo at 75 mg/kg (carrageenin edema; [4]): -32% | LD50 at 48 h [1]: 2370 mg/kg | Total blood cholesterol, M (total blood cholesterol): 0,67 | Solubility in N-methyl pyrrolidone (Solubility properties): 25% | Solubility in chloroform (in words) (Solubility properties; chloroform, in words): Soluble | Solubility in NN-dimethyl acetamide (Solubility properties): 20% | Solubility in ether (Solubility properties; in words): Soluble | Solubility in water (Solubility properties; water, in words): insoluble
